Assays:
[1] = system: Mouse Sarcoma S-180; experiment: Kunming mouse Sarcoma S-180 model, in vivo tumor growth; settings: for Tumor Size (Mean ± SD, g) / Tumor Inhibition (%) / Tumor Weight (Mean ± SD, g) / Tumor Inhibition Rate (%): 10 days; for Tumor Weight (Mean ± SD, g) / Tumor Inhibition Rate (%): Table 3.2
Description: (§1) (1) Kunming mouse Sarcoma S-180 model: Mouse Sarcoma S-180 ascites tumor cells, 1×10E6 cells resuspended in 0.2 ml saline per mouse, were injected subcutaneously to the right axillary space of 5- to 6-week old Kunming mice.
(§2) C. […] The amount of either tested drug for one kg mouse was prepared as 10 ml solution, and 10 micro-liters per gram of mouse were injected intraperitoneally, once or twice daily, for 10 consecutive days for the Kunming mice with Sarcoma S-180 and Hepatoma H22, and for 15 consecutive days for C57BL/6 mice with melanoma B16. 50% glucose, 30 ml/kg, was given by gavage to selected groups of mice receiving the tested drug 60 to 90 minutes before each injection. One group of mice received saline only while another group of mice received the glucose treatment without the tested drug; these groups served as the saline-only control and the glucose-only control, respectively. A third group of mice received intraperitoneal injection of cyclophosphamide (CTX), or 5-Fluorouracil (5FU), 25 to 50 mg/kg body weight, was included in some experiments as positive control. At the end of the experiment, mouse body weight was taken, and the Sarcoma S-180, or Hepatoma H22 tumors were dissected and weighted, while the tumor size of melanoma B16 was measured using a caliper. Melanoma B16 tumor volume was calculated using the following equation: Tumor volume=S*S*L*0.5, where S is the short diameter, and L stands for long diameter of the tumor according to Beck M T et al. (Cancer Research 63:3598, 2003).

[2] = system: Mouse Hepatoma H22; experiment: Kunming mouse Hepatoma H22 model, in vivo tumor growth; settings: for Tumor Size (Mean ± SD, g) / Tumor Inhibition (%): Table 2.2; for Tumor Size (Mean ± SD, g) / Tumor Inhibition (%) / Compared to Glucose group Inhibition (%) / Compared to Saline group Inhibition (%) / Tumor size Mean ± SD: 10 days; for Tumor Inhibition (%): vs saline; for Compared to Glucose group Inhibition (%) / Compared to Saline group Inhibition (%) / Tumor size Mean ± SD: Table 6.2
Description: (§3) (2) Kunming mouse Hepatoma H22 model: Mouse Hepatoma H22 ascites tumor cells, 1×10E6 cells in 0.2 ml saline per mouse, were injected subcutaneously to the right axillary space of 5- to 6-week old Kunming mice.
as §2

[3] = system: Mouse melanoma B16; experiment: C57BL/6 mouse melanoma B16 model, tumor growth; type: in vivo; settings: for Tumor Size (Mean ± SD, mm3) / Tumor Inhibition (%): Table 4.2, 1 dose/day, 15 days; for Tumor Inhibition (%): vs saline
Description: (§4) (3) C57BL/6 mouse melanoma B16 model: Mouse melanoma B16 cells, 1×10E7 cells in 0.2 ml of saline per mouse, were injected subcutaneously into right axillary space of 6 to 8 week old C57BL/6 mice. The mice were randomly divided into groups after tumor cell inoculation.
as §2

[4] = Toxicity observation during URIN and MAIN administration in tumor-bearing mice; type: in vivo; settings: i.p., up to 4480 mg/kg once or twice daily
Description: as §2

[5] = cited from earlier work
[6] = system: human melanoma xenographts; settings: a dose of MIBG under hyperglycemic conditions, SCID mice; cited from earlier work
[7] = Body weight of mice bearing Sarcoma S-180; settings: CTX 30 mg/kg i.p., 1 dose/day, 10 days
Description: as §1, §2

[8] = Body weight of mice bearing Hepatoma H22; settings: Table 2.1; CTX 25 mg/kg i.p., 1 dose/day, 10 days
Description: as §3
as §2, with “A third group of mice received intraperitoneal injection of cyclophosphamide (CTX), or 5-Fluorouracil (5FU), 25 to 50 mg/kg body weight, was included in some experiments as positive control.” left out

[9] = Body weight of mice with B16 melanoma; settings: Table 4.1; CTX 50 mg/kg i.p., 1 dose/day, 15 days
Description: as §4
as §2, with “A third group of mice received intraperitoneal injection of cyclophosphamide (CTX), or 5-Fluorouracil (5FU), 25 to 50 mg/kg body weight, was included in some experiments as positive control.” left out

[10] = human, in vivo; cited from earlier work
[11] = URIN 4480 mg/kg i.p., 2 doses/day, no glucose
[12] = URIN H 4480 mg/kg i.p., glucose pre-treatment
[13] = URIN L 1680 mg/kg i.p., glucose pre-treatment
[14] = MAIN H 3750 mg/kg i.p., 2 doses/day, glucose pre-treatment
[15] = MAIN L 1500 mg/kg i.p., 2 doses/day, glucose pre-treatment
[16] = MAIN M 2500 mg/kg i.p., 2 doses/day, glucose pre-treatment

SMILES: C1N2CN3CN1CN(C2)C3 [URIN, Methenamine]
- Tumor Size (Mean ± SD, g) ([1]; Table 1.2, URIN 4480 mg/kg i.p., 2 doses/day, no glucose): 1.07 ± 0.31 g
- Tumor Inhibition (%) ([1]; Table 1.2, URIN 4480 mg/kg i.p., 2 doses/day, no glucose, vs saline): 21.9%
- Tumor Weight (Mean ± SD, g) ([1]; URIN H 4480 mg/kg i.p., 2 doses/day, glucose pre-treatment): 1.25 ± 0.41 g
- Tumor Inhibition Rate (%) ([1]; URIN H 4480 mg/kg i.p., 2 doses/day, glucose pre-treatment, vs saline): 36.2%
- Tumor Weight (Mean ± SD, g) ([1]; URIN L 1680 mg/kg i.p., 2 doses/day, glucose pre-treatment): 1.54 ± 0.56 g
- Tumor Inhibition Rate (%) ([1]; URIN L 1680 mg/kg i.p., 2 doses/day, glucose pre-treatment, vs saline): 21.4%
- Tumor Weight (Mean ± SD, g) ([1]; URIN M 2800 mg/kg i.p., 2 doses/day, glucose pre-treatment): 1.57 ± 0.50 g
- Tumor Inhibition Rate (%) ([1]; URIN M 2800 mg/kg i.p., 2 doses/day, glucose pre-treatment, vs saline): 19.9%
- In vivo growth of mouse tumor Sarcoma S-180 (conclusion) ([1]; administration of URIN): significantly inhibited
- Tumor Size (Mean ± SD, g) [2, 11]: 1.37 ± 0.39 g
- Tumor Inhibition (%) [2, 11]: 41.2%
- In vivo growth of mouse tumor Hepatoma H22 (conclusion) ([2]; administration of URIN): significantly inhibited
- Tumor Size (Mean ± SD, mm3) [3, 12]: 2755 ± 1098 mm3
- Tumor Inhibition (%) [3, 12]: 32.1%
- Tumor Size (Mean ± SD, mm3) [3, 13]: 3376 ± 1419 mm3
- Tumor Inhibition (%) [3, 13]: 16.7%
- Tumor Size (Mean ± SD, mm3) ([3]; URIN M 2800 mg/kg i.p., glucose pre-treatment): 4241 ± 1834 mm3
- Tumor Inhibition (%) ([3]; URIN M 2800 mg/kg i.p., glucose pre-treatment, value in bracket = increased rate): (−14.6%)
- In vivo growth of mouse tumor B16 Melanoma (conclusion) ([3]; administration of URIN): significantly inhibited
- Death from drug toxicity [4]: No mouse died of URIN toxicity
- Stability in a pH-neutral medium ([5]; pH-neutral medium): very stable
- Liberation of formaldehyde in serum and normal tissue ([5]; serum and normal tissue): does not liberate formaldehyde

SMILES: N=C(N)NCc1cccc(I)c1 [MIBG, m-Iodpbenzylguanidine]
- Reduction of extracellular pH of tumor [6]: up to 0.59 units

SMILES: O=c1[nH]cc(F)c(=O)[nH]1 [5FU, 5-Fluorouracil]
- Compared to Glucose group Inhibition (%) ([2]; 5FU 25 mg/kg i.p., 1 dose/day): 71.4%
- Compared to Saline group Inhibition (%) ([2]; 5FU 25 mg/kg i.p., 1 dose/day): 77.4%
- Tumor size Mean ± SD ([2]; 5FU 25 mg/kg i.p., 1 dose/day): 0.48 ± 0.25 g

SMILES: O=P1(N(CCCl)CCCl)NCCCO1 (stereo not shown) [CTX, cyclophosphamide]
- Tumor Size (Mean ± SD, g) ([1]; Table 1.2, CTX 30 mg/kg i.p., 1 dose/day): 0.53 ± 0.14 g
- Tumor Inhibition (%) ([1]; Table 1.2, CTX 30 mg/kg i.p., 1 dose/day, vs saline): 61.3%
- Tumor Weight (Mean ± SD, g) ([1]; CTX 30 mg/kg i.p., 1 dose/day): 0.53 ± 0.22 g
- Tumor Inhibition Rate (%) ([1]; CTX 30 mg/kg i.p., 1 dose/day, vs saline): 73.0%
- Tumor Size (Mean ± SD, g) ([2]; CTX 25 mg/kg i.p., 1 dose/day): 1.21 ± 0.37 g
- Tumor Inhibition (%) ([2]; CTX 25 mg/kg i.p., 1 dose/day): 48.1%
- Tumor Size (Mean ± SD, mm3) ([3]; CTX 50 mg/kg i.p.): 118 ± 100 mm3
- Tumor Inhibition (%) ([3]; CTX 50 mg/kg i.p.): 97%
- Body weight (Mean ± SD, g) End ([7]; Table 1.1): 23.5 ± 1.7 g
- Body weight (Mean ± SD, g) Start ([7]; Table 1.1): 21.9 ± 1.1 g
- Body weight (Mean ± SD, g) End ([7]; Table 3.1): 23.0 ± 2.9 g
- Body weight (Mean ± SD, g) Start ([7]; Table 3.1): 21.4 ± 1.0 g
- Body weight (Mean ± SD, g) End [8]: 32.6 ± 2.5 g
- Body weight (Mean ± SD, g) Start [8]: 24.6 ± 1.0 g
- Body weight (Mean ± SD, g) End [9]: 18.6 ± 1.6 g
- Body weight (Mean ± SD, g) Start [9]: 20.3 ± 1.5 g

SMILES: C1N2CN3CN1CN(C2)C3.O=C(O)C(O)c1ccccc1 (stereo not shown) [MAIN, methenamine mandelate]
- Tumor Size (Mean ± SD, g) ([1]; Table 5.2, MAIN H 3714 mg/kg i.p., 2 doses/day, glucose pre-treatment): 1.25 ± 0.41 g
- Tumor Inhibition (%) ([1]; Table 5.2, MAIN H 3714 mg/kg i.p., 2 doses/day, glucose pre-treatment, vs glucose group): 45.9%
- Tumor Size (Mean ± SD, g) ([1]; Table 5.2, MAIN L 1485 mg/kg i.p., 2 doses/day, glucose pre-treatment): 2.14 ± 0.60 g
- Tumor Inhibition (%) ([1]; Table 5.2, MAIN L 1485 mg/kg i.p., 2 doses/day, glucose pre-treatment, vs glucose group): 7.4%
- Tumor Size (Mean ± SD, g) ([1]; Table 5.2, MAIN M 2320 mg/kg i.p., 2 doses/day, glucose pre-treatment): 1.85 ± 0.62 g
- Tumor Inhibition (%) ([1]; Table 5.2, MAIN M 2320 mg/kg i.p., 2 doses/day, glucose pre-treatment, vs glucose group): 19.9%
- Compared to Glucose group Inhibition (%) [2, 14]: 38.7%
- Compared to Saline group Inhibition (%) [2, 14]: 51.4%
- Tumor size Mean ± SD [2, 14]: 1.03 ± 0.66 g
- Compared to Glucose group Inhibition (%) [2, 15]: 6.0%
- Compared to Saline group Inhibition (%) [2, 15]: 25.5%
- Tumor size Mean ± SD [2, 15]: 1.58 ± 0.42 g
- Compared to Glucose group Inhibition (%) [2, 16]: 6.5%
- Compared to Saline group Inhibition (%) [2, 16]: 25.5%
- Tumor size Mean ± SD [2, 16]: 1.57 ± 0.74 g
- Side effects resulting from long term use [10]: negligible

Source: patent publication US20060079463A1 (priority 2003, published 2006)
